Experimental data reported in patent publication US6350773B1, “Therapeutic combinations of (S)-2-(benzylamino-methyl)-2,3,8,9,-tetrahydro 7H-1,4-dioxino{2,3-e}indol-8-one and neuroleptics for the treatment or prevention of psychotic disorders” (American Home Products Corporation, priority 1999, dated 2002).

Key:
[1] = test system: haloperidol-induced catalepsy in rats; assay: Reversal of haloperidol-induced catalepsy in rats; type: in vivo, Sprague-Dawley rats; conditions: haloperidol 3 mg/kg i.p.
Protocol: FIG. 1 is a schematic representation of the effect of (S)-2-(benzylaminomethyl)-2,3,8,9-tetrahydro-7H-1,4-dioxino[2,3-e]indol-8-one (agent) on haloperidol-induced catalepsy in rats at 60 minutes after drug treatment, the time point of greatest reversal as measured by seconds spent in catelepsy over a dose range of 0.003 to 3 mg/kg s.c. of agent. The data are means±SEM.
Tests for reversal of haloperidol-induced catalepsy in rats were conducted according to a variation of the methods of Svensson et al., Neuropharmacology, 1993, 32:1037-1045. Rats (200-250 g) were transported from the colony room to the experimental room and held there for the duration of the experiment. Haloperidol, dissolved in 0.25% Tween 80®, was administered to all animals at a dose of 3 mg/kg i.p. Sixty minutes later, (S)-2-(benzylamino-methyl)-2,3,8,9-tetrahydro-7H-1,4-dioxino[2,3-e]indol-8-one, also dissolved in 0.25% Tween 80®, was administered s.c. at 4 dose levels to 6 male Sprague-Dawley rats per dose level. A control group, assessed simultaneously with (S)-2-(benzylamino-methyl)-2,3,8,9-tetrahydro-7H-1,4-dioxino[2,3-e]indol-8-one treated groups, received a vehicle (VEH) injection of 0.25% Tween 80® at equal volumes (1 ml/kg). Animals were assessed for catalepsy at 30, 60, 90 and 120 minutes after drug administration by placing the animal's forepaws on a wooden cube (8×8×8 cm). The time that the animal remained with at least one of the forepaws on the cube was measured (maximum=60 sec). The righting reflex was then tested and used to discard sedated subjects. Data were analyzed using a two-factor analysis of variance with one repeated measure. A subsequent least significant difference from control test (p<0.05) was used to determine the minimal effective dose (MED) for reversing haloperidol-induced catalepsy and to determine time of onset. A trend test was then used to determine at which time points (if any) there was a dose-related effect. […]

[2] = test system: d-amphetamine induced hyperactivity in mice; assay: Antagonism of d-amphetamine-induced hyperlocomotion in mice; type: in vivo; conditions: d-amphetamine 2.5 mg/kg i.p.
Protocol: FIG. 3 is a schematic representation of the effect of (S)-2-(Benzylamino-methyl)-2,3,8,9-tetrahydro-7H-1,4-dioxino[2,3-e]indol-8-one (agent) to reverse d-amphetamine induced hyperactivity in mice. The data are expressed as a percentage of the activity level (horizontal activity counts) observed in mice treated with d-amphetamine alone for eight doses ranging from 0.0001 to 1 mg/kg s.c. of agent. The data are presented as means±SEM.
The ability to antagonize amphetamine-induced hyperlocomotion was tested according to a modified version of the methods of Riffee and Wilcox, Psychopharmacology, 1985, 85:97-101. Mice (25-30 g) were transported from the colony room to the experimental room and held there for the duration of the experiment. […] Control groups, assessed simultaneously with drug-treated groups, received vehicle at equal volumes (10 ml/kg). […] Activity was monitored for 30 minutes with lights on using Omnitech Digiscan® (Columbus, Ohio) infrared monitors. Each infrared beam break was counted by the automated system and totaled at 10 minute intervals. […]
FIG. 3 is a schematic representation of the effect of (S)-2(Benzylamino-methyl)-2,3,8,9-tetrahydro-7H-1,4-dioxino[2,3-e]indol-8-one (agent) to reverse d-amphetamine induced hyperactivity in mice. The data are expressed as a percentage of the activity level observed in mice treated with d-amphetamine alone and are presented as means±SEM.

catalepsy in rats = assay: Cataleptogenic potential in rats (no haloperidol); type: in vivo; conditions: 0.003 to 3 mg/kg s.c., 60 min post dosing, similar at the other time points

Which ED50 ([1]; Rattus norvegicus, 1 h, agent s.c., 60 minutes after drug treatment (time point of greatest reversal), read-out: ED50 (dose producing 50% reduction in maximal response), reversal of haloperidol-induced catalepsy) does the source give for `O=C1Cc2c(ccc3c2O[C@@H](CNCc2ccccc2)CO3)N1` [(S)-2-(benzylamino-methyl)-2,3,8,9-tetrahydro-7H-1,4-dioxino[2,3-e]indol-8-one] here?
The ED50 was 0.08 mg/kg.

What about the “time spent in catalepsy position” value ([1]; agent 0.003 to 3 mg/kg s.c., 60 minutes after drug treatment) of the same molecule?
Its value is “dose-dependent decrease”.

What about the “MED (minimal effective dose) for reversing haloperidol-induced catalepsy” value ([1]; agent s.c. 60 min later, 60 minutes after drug treatment) of the same molecule?
Its value is 0.3 mg/kg.

And the ED50 ([2]; Mus musculus, agent s.c., horizontal activity counts 10-20 min, read-out: ED50 (dose producing 50% reduction in activity), d-amphetamine-induced hyperactivity)?
Its ED50 is 0.002 mg/kg.

And the “d-amphetamine-induced hyperactivity (horizontal activity counts, % of d-amphetamine alone)” value ([2]; agent 0.0001 to 1 mg/kg s.c.)?
The value was “dose-dependent decreased”.

And the “ability to induce catalepsy” value (catalepsy in rats)?
Its value is “lack of ability of the agent to induce significant catalepsy”.
